Experiments:
[1] = target: XIAP (Homo sapiens, UniProt P98170); settings: cited from earlier work
[2] = system: TRAIL-mediated apoptosis; settings: cited from earlier work
[3] = target: T1, DR5/DDX3/cIAP1 protein complex (Homo sapiens, UniProt Q13490); assay: cIAP1 in the DR5 complex by DR5-coIP, pancreatic cancer cells; assay type: cell-based; settings: 10 uM AT-406, 1000 ng/ml TRA-8, overnight
T1 construct: endogenous in cells; host or cells: S2013 (printed S013) and S2VP10 human pancreatic cancer cells
T1 sequence (Q13490 whole entry, one chain of several): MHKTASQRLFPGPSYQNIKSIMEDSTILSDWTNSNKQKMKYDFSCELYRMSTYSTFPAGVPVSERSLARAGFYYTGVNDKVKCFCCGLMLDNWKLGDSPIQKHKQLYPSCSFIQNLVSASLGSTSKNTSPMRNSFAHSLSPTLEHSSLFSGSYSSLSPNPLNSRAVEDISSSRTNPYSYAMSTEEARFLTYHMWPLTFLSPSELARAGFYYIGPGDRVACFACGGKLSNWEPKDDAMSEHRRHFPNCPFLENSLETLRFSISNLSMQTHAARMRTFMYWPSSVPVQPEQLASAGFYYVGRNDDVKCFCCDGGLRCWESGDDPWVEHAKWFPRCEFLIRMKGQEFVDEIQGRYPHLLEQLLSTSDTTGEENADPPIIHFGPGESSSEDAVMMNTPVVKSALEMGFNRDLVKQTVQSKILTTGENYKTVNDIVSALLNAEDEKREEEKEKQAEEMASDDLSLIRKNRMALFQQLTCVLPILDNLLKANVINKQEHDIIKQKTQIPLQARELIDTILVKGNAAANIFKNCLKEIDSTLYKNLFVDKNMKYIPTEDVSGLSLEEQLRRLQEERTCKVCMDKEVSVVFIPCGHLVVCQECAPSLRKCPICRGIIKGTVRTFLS

[4] = system: IAP proteins; assay: Western blot of IAP proteins in total cell lysates with 3H4 antibody, pancreatic cancer cells; assay type: cell-based, human; settings: S2013 and S2VP10; 1000 ng/ml TRA-8, 10 uM AT-406, overnight
[5] = system: IAP proteins associated with DDX3; assay: IAP proteins in the DDX3 complex, breast cancer cell lines (DDX3 immunoprecipitation, 3H4 blot); assay type: cell-based, human; settings: panel of breast cancer cell lines; 1000 ng/ml TRA-8, 10 uM AT-406, overnight
Protocol: FIGS. 10A, 10B, and 10C show the in vitro effect of AT-406 on IAPs in breast cancer cell lines. Human breast cancer cell lines (MB436 and 2LMP (FIG. 10A), SUM159 and SUM149 (FIG. 10B), BT474 and MB468 (FIG. 10C) were treated with control medium (lane 1) or 1000 ng/ml TRA-8 (lane 2), or 10 uM AT-406 (lane 3) or both (lane 4) overnight. Cell lysates from treated cells were immunoprecipitated with an anti-DDX3 antibody (clone 3E4). The precipitated proteins were western blotted and the IAP proteins were detected by 3H4 antibody.
Effect of AT-406 on expression of IAP proteins in the DDX3 complex was analyzed in a panel of breast cancer cell lines including triple negative and non-triple negative lines. As previously shown, four triple negative breast cancer lines, […], 2LMP (FIG. 10A), SUM 159, and SUM 149 (FIG. 10B) expressed lower levels of cIAP1 or cIAP2 protein when co-immunoprecipitated with DDX3, compared to two non-triple negative lines, BT474 and MB468 (FIG. 10C), which were resistant to TRA-8-mediated apoptosis.

[6] = target: cIAP1 (Homo sapiens, UniProt Q13490); settings: cited from earlier work
cIAP1, sequence (Q13490 whole entry): as the sequence (Q13490 whole entry, one chain of several) above

[7] = system: human pancreatic cancer cells, S013 and S2VP10; assay: Effect of AT-406 on TRA-8-induced apoptosis of pancreatic cancer cells; assay type: cell-based; settings: 10 μM AT-406 alone
Text: To determine whether AT-406 is able to overcome DR5-apoptosis resistance of pancreatic cancer cells, the effect of AT-406 on TRA-8-induced apoptosis was examined for two lines of human pancreatic cancer cells, S013 and S2VP10, both of which are highly resistant to TRA-8-mediated apoptosis. […] To determine the effect of AT-406 on the DR5/DDX3/cIAP1 protein complex, the amount of cIAP1 was examined by DR5-coIP. […] This was not due to the reduction of DR5-associated DDX3 as DDX3 was equally co-immunoprecipitated with DR5.

[8] = target: cIAP2 (Homo sapiens, UniProt Q13489); settings: cited from earlier work
cIAP2, sequence (Q13489 whole entry): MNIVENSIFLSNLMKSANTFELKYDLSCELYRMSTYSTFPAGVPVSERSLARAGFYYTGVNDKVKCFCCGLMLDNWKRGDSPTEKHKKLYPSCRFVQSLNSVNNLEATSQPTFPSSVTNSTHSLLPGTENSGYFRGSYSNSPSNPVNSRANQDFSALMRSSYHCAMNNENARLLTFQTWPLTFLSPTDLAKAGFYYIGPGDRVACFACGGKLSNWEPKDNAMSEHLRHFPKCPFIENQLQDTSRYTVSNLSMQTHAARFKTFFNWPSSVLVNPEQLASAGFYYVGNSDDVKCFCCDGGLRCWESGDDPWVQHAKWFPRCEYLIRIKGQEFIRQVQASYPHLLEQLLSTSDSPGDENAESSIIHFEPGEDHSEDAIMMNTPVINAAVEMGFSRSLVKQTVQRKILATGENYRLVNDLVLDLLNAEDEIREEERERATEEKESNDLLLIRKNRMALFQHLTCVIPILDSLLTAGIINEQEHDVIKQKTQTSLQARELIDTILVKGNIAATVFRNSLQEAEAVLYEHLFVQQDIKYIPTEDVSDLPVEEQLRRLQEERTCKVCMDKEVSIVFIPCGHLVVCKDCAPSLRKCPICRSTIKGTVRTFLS

[9] = system: 2LMP orthotopic basal B xenografts; assay: In vivo efficacy against 2LMP orthotopic xenografts; design: species or system athymic nude mice; settings: 2LMP xenografts; untreated 8.6 days
Protocol: (§1) The arrows indicate the interval during which antibody was administered (n=9-10 mice/group).
(§2) Treatments were initiated once tumors were well-established, with tumor diameters of about 6 mm, and tumor size was monitored over time.

[10] = system: SUM159 orthotopic basal B xenografts; assay: In vivo efficacy against SUM159 orthotopic xenografts; design: species or system athymic nude mice; settings: untreated 17.9 days
Protocol: as §1, §2

[11] = system: triple negative breast cell (TNBC) cell lines (basal); assay: TRA-8 cytotoxicity against the panel of TNBC cell lines; assay type: cell-based, human; settings: cell lines of basal B subtype (FIG. 1)
[12] = system: DDX3; assay: siRNA mediated knockdown of DDX3, Western blot in TRA-8-resistant MDA231 cells; assay type: cell-based, human; settings: among five RNAi constructs
Text: Design RNAi: an online design tool, BLOCK-iT RNAi Designer (Invitrogen; Carlsbad, Calif.), was used to identify RNAi targets for DDX3. Five targeted siRNA sequences were selected from the top 10 highest scoring RNAi targets (see Table 1).
They were then cloned into the BLOCK-iT U6 entry vector. The siRNA is driven by the U6 promoter and can be transiently expressed in most dividing or nondividing mammalian cell types. Resistant cells were transfected with RNAi used LIPOFECTAMINE 2000 (Invitrogen; Carlsbad, Calif.) for the RNAi response. The decreased DDX3 expression was determined by Western blot analysis using anti-DDX3 antibody 36 hours after transfection. […]
To study the role of DDX3 in DR5 signaling, the importance of endogenous DDX3 in TRA-8-induced apoptosis was examined. […] TRA-8-resistant MDA231 cells were transfected with five RNAi constructs, and protein expression levels of DDX3 were determined by Western blot analysis using monoclonal anti-DDX3 antibody 48 hours post-transfection. […] To further determine the causal role of DDX3 in DR5-mediated apoptosis, DDX3 expression was reduced in a panel of tumor cells and their susceptibility to TRA-8-induced apoptosis analyzed. […]

XIAP, sequence (P98170 whole entry): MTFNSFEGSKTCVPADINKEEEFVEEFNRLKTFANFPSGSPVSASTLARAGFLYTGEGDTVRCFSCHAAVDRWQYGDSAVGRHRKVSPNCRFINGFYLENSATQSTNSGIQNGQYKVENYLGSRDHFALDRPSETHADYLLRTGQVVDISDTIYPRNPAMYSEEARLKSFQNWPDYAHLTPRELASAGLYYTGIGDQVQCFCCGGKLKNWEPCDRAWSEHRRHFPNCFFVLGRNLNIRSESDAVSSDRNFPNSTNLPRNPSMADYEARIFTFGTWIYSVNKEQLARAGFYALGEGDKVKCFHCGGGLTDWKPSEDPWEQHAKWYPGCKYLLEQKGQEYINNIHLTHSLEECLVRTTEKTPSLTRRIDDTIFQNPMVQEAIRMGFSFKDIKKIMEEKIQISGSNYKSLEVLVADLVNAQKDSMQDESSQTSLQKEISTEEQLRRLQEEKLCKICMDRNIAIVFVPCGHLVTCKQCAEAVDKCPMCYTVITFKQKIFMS

In the case of `CN[C@@H](C)C(=O)N[C@H]1CN(C(=O)CC(C)C)CC[C@H]2CC[C@@H](C(=O)NC(c3ccccc3)c3ccccc3)N2C1=O` [AT-406], the affinity [1] is listed as “low nanomolar affinity”, the “effect on TRAIL-mediated apoptosis” value [2] is listed as “synergistically enhances” and the “amount of cIAP1 in the DR5 complex” value [3] is listed as “dramatic reduction”. For the same molecule, the “total IAP protein expression” value [4] was “did not alter”, the “levels of the IAP proteins associated with DDX3” value [5] was “significantly reduced” and the affinity [6] was “low nanomolar affinity”. For the same molecule, the cell death [7] was “did not induce significant cell death” and the affinity [8] was “low nanomolar affinity”.

With `COc1cccc2c1C(=O)c1c(O)c3c(c(O)c1C2=O)C[C@@](O)(C(=O)CO)C[C@@H]3O[C@H]1C[C@H](N)[C@H](O)[C@H](C)O1` [Adriamycin] the tumor doubling time [9] was 51.1 days and the “mean tumor doubling time” value [10] was 41.9 days.

With “TRAIL: Recombinant soluble TRAIL purchased from Alexis Biochemicals” the “cytotoxicity compared with TRA-8” value [11] was “Equivalent cytotoxicity”.

B1: construct #2: DDX3 RNAi construct 562-582, SEQ ID NO: 6 and 7 (nucleic acid)
chain 1: CACCGGAGAAATTATCATGGGAAACCGAAGTTTCCCATGATAATTTCTCC
chain 2: AAAAGGAGAAATTATCATGGGAAACTTCGGTTTCCCATGATAATTTCTCC
modifications: expressed or natural sequence
In the case of B1, the “rank as inhibitor of DDX3 expression” value [12] is reported as “most effective”.

From patent US10316100B2, “Treating basal-like genotype cancers” (The UAB Research Foundation, priority 2009, dated 2019)
